Experimental data: PubChem BioAssay (NCI)
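Five compound concentrations were applied to cells in 96-well plates for 48 hours; endpoints were derived by simple linear interpolation of the resulting dose-response curve. GI50 marks 50% less growth. TGI: total growth inhibition.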

Key:
Experiment in all cases: inhibition of tumour cell growth, NCI panel, 48 h
OVCAR-5 ovarian = test system: OVCAR-5 ovarian
HCT-116 colon = test system: HCT-116 colon
MALME-3M melanoma = test system: MALME-3M melanoma
LOX IMVI melanoma = test system: LOX IMVI melanoma
SNB-75 CNS = test system: SNB-75 CNS
RXF 393 renal = test system: RXF 393 renal
SK-MEL-2 melanoma = test system: SK-MEL-2 melanoma
TK-10 renal = test system: TK-10 renal
SK-MEL-5 melanoma = test system: SK-MEL-5 melanoma
HS 578T breast = test system: HS 578T breast

SMILES | TGI (OVCAR-5 ovarian) [µM] | TGI (HCT-116 colon) [µM] | TGI (MALME-3M melanoma) [µM] | TGI (LOX IMVI melanoma) [µM] | TGI (SNB-75 CNS) [µM] | TGI (RXF 393 renal) [µM] | TGI (SK-MEL-2 melanoma) [µM] | TGI (TK-10 renal) [µM] | TGI (SK-MEL-5 melanoma) [µM] | GI50 (HS 578T breast) [µM] | TGI (HS 578T breast) [µM] | GI50 (OVCAR-5 ovarian) [µM] | GI50 (HCT-116 colon) [µM] | GI50 (MALME-3M melanoma) [µM] | GI50 (LOX IMVI melanoma) [µM] | GI50 (SNB-75 CNS) [µM] | GI50 (RXF 393 renal) [µM] | GI50 (TK-10 renal) [µM] | GI50 (SK-MEL-5 melanoma) [µM]
CS(=O)(=O)N(CCC#N)c1ccc(/C=N/NC(=O)CC(=O)Nc2cccc(Cl)c2)cc1 | > 100 | > 100 | > 100 | > 100 | > 100 | > 100 | > 100 | > 100 | > 100 |  |  |  |  |  |  |  |  |  | 
COc1ccc(S(=O)(=O)N/N=C/CN2C(=O)c3ccccc3C2=O)cc1OC |  | > 100 | > 100 | > 100 | > 100 | > 100 | > 100 |  | > 100 |  |  |  |  |  |  |  |  |  | 
CC(C)COC(=O)N1N=NC2C3OC(CC3=O)C21 (stereo not given) | > 100 | > 100 | > 100 | > 100 | > 100 | > 100 | > 100 | > 100 | > 100 |  |  |  |  |  |  |  |  |  | 
C=CCC12CCC(=O)C=C1CCC1(C2)OCCO1 (stereo not given) |  | > 100 | > 100 |  | > 100 | > 100 | > 100 | > 100 | > 100 |  |  |  |  |  |  |  |  |  | 
CCOC(=O)C(=O)C1C(=O)Nc2ccccc21 (stereo not given) | > 100 | > 100 | > 100 | > 100 | > 100 | > 100 | > 100 | > 100 |  |  |  |  |  |  |  |  |  |  | 
Oc1ccc2occ3c2c1CCC3 |  | > 100 |  | > 100 | > 100 | > 100 |  | > 100 | > 100 |  |  |  |  |  |  |  |  |  | 
O=CN1N=C(c2ccc(Nc3ccnc4cc(Cl)ccc34)cc2)CC1c1ccccc1 (stereo not given) | > 100 | 18.5 | > 100 | 3.33 | > 100 | 21.6 |  | 38.5 | 3.77 | 3.77 | 71.1 | 19.8 | 3.58 | 4.21 | 1.61 | 5.03 | 2.2 | 9.51 | 1.38
COC(=O)Nc1nc2ccc(Oc3ccc(NC(=O)Nc4cccc(Br)c4)cc3)cc2[nH]1 | > 25 | > 12.6 | 9.14 | > 11.9 | 6.13 | 11.9 |  | 12 | 11.9 | 3.16 | > 19.8 | > 11.9 | 1.32 | 1.41 | 2.32 | 0.781 | 1.92 | 4.66 | 0.948
CC1=C(C)CC2(SC1)C(=O)c1ccccc1C2=O | > 100 | > 100 | > 100 | > 100 | > 100 | > 100 | > 100 | > 100 | > 100 |  |  |  |  |  |  |  |  |  | 
O=C(O)CNS(=O)(=O)c1ccc(NC(=O)c2ccc(F)cc2)cc1 | > 100 |  | > 100 | > 100 | > 100 | > 100 | > 100 | > 100 | > 100 |  |  |  |  |  |  |  |  |  | 
COc1cc2c(cc1OCCCOC1=C=C=C(c3ccc4c(c3)c3cc(-c5ccc(OCCCOc6cc7c(cc6OC)C(=O)N6CCC[C@H]6C=N7)cc5)ccc3n4S(=O)(=O)c3ccc(C)cc3)C=C1)N=C[C@@H]1CCCN1C2=O | 17.8 | 7.05 | 10.2 | 7.51 | 5.33 | 2.59 |  | 5.05 | 11.1 | 1.42 | > 10.8 | 5.87 | 1.62 | 3.26 | 1.49 | 1.03 | 1.17 | 1.27 | 4.26
CCN(CC)CC(=O)/C=C/c1ccc(C)cc1 | > 100 | 32.4 | 41.2 | 34.4 | 55.1 | 44.2 |  | 74.8 | 33.1 |  |  |  |  |  |  |  |  |  | 
CCN(CC)c1ccc(N=C2C=CC(=O)c3ncccc32)c(C)c1 | 24.4 | 6 | 12.5 | 4.39 | 28.9 | 12.6 | 29 | 29.8 | 18.4 |  |  |  |  |  |  |  |  |  | 
CC1=C(SCc2ccccc2)C(=O)c2ccccc2C1=O | 71.7 | 18.2 | 29.2 | 38.2 | 26.5 | 30.4 | 40.1 | 36.9 | 31 |  |  |  |  |  |  |  |  |  | 
CC1CCC2(NC1)OC1CC3[C@@H]4CC=C5C=CCC[C@]5(C)C4CC[C@]3(C)C1C2C (stereo not given in full) | 50 | 32.7 | 35.3 | 33.6 | 80.6 | > 100 | 35.2 | 35.3 | 30.8 |  |  |  |  |  |  |  |  |  | 
O=c1[nH]c(-c2ccccc2)nc2ccc(Cl)cc12 | > 100 | > 100 | > 100 |  |  | > 100 | > 100 | > 100 |  |  |  |  |  |  |  |  |  |  | 
O=c1[nH]c(=O)n(C2CC(O)C(CO)O2)cc1C(OCC(F)(F)F)OCC(F)(F)F (stereo not given) | > 100 |  | > 100 | > 100 | > 100 | > 100 | > 100 | > 100 | > 100 |  |  |  |  |  |  |  |  |  | 
CC(=O)NC1=C(C)C(=O)c2c(nc3n2CCC3O)C1=O (stereo not given) | > 100 | 67.7 | 37.5 | > 100 | > 100 | 48.3 | 42.8 | > 100 | > 100 |  |  |  |  |  |  |  |  |  | 
OCCN(CCO)c1cccc(N(CCO)CCO)c1 |  | > 100 |  | > 100 | > 100 | > 100 | > 100 | > 100 | > 100 |  |  |  |  |  |  |  |  |  | 
Cn1cc(NC(=O)c2cc(NC(=O)Nc3cc(C(=O)Nc4cc(C(=O)NCCC(=N)N)n(C)c4)n(C)c3)cn2C)cc1C(=O)NCCC(=N)N | > 100 | > 100 | > 100 | 70.1 | 67.2 | 42.9 |  | 54.7 | 53.1 |  |  |  |  |  |  |  |  |  | 
CO/C(=N\N=C\c1ccc(Cl)cc1Cl)c1ccncc1 | > 10 | > 10 | > 10 | > 10 |  | > 10 | > 10 | > 10 |  |  |  |  |  |  |  |  |  |  | 
CNS(=O)(=O)NN(C)S(=O)(=O)c1ccc(Cl)cc1 |  | > 100 | > 100 | > 100 | > 100 | > 100 | > 100 | > 100 | > 100 |  |  |  |  |  |  |  |  |  | 
